Laboratory results published in patent US8741934B2, “Inhibitors of ion channels” (Pfizer Limited, priority 2007, dated 2014).

Molecular target: T1, hSCN3A sodium channels (Homo sapiens, UniProt Q9NY46)
T1 construct: expressed in transfected cells
Test: hSCN3A electrophysiology, Ionworks Quattro automated platform (Table C)
Format: cell-based
Details: for inhibition at 3 µM: read-out: SCN3A % INHIB HTS IWQ 3 μM; for inhibition at 10 µM: read-out: SCN3A % INHIB HTS IWQ 10 μM
Protocol: Human Embryonic Kidney (HEK) cells were transfected with an hSCN3A construct using lipofectamine reagent (Invitrogen), using standard techniques. […] Clones were screened for expression using the whole-cell voltage-clamp technique.
HEK cells stably transfected with hSCN3A were maintained in DMEM medium supplemented with 10% heat-inactivated fetal bovine serum and 400 μg/ml G418 sulfate in an incubator at 37° C. with a humidified atmosphere of 10% CO2. […] For electrophysiological studies, cells were removed from the culture flask by brief trypsinization and replated at low density onto glass cover slips. Cells were typically used for electrophysiological experiments within 24 to 72 h after plating.
Electrophysiological assays were also conducted using the Ionworks Quattro automated electrophysiological platform (Molecular Devices Corp) (Table C). Intracellular and extracellular solutions were as described above with the following changes, 100 μg/ml amphotericin was added to the intracellular solution to perforate the membrane and allow electrical access to the cells. hSCN3A cells were grown and harvested as for PatchXpress and cells were resuspended in extracellular solution at a concentration of 3-4×10^6 cells/ml. The onboard liquid handling facility of the Ionworks Quattro was used for dispensing cells and application of test compounds. A voltage protocol was then applied that comprised of a voltage step to fully inactivate the sodium channels, followed by a brief hyperpolarized recovery period to allow partial recovery from inactivation for unblocked sodium channels, followed by a test depolarized voltage step to assess magnitude of inhibition by test compound. Compound effect was determined based on current amplitude difference between the pre-compound addition and post-compound addition scans.

T1 sequence (Q9NY46 whole entry): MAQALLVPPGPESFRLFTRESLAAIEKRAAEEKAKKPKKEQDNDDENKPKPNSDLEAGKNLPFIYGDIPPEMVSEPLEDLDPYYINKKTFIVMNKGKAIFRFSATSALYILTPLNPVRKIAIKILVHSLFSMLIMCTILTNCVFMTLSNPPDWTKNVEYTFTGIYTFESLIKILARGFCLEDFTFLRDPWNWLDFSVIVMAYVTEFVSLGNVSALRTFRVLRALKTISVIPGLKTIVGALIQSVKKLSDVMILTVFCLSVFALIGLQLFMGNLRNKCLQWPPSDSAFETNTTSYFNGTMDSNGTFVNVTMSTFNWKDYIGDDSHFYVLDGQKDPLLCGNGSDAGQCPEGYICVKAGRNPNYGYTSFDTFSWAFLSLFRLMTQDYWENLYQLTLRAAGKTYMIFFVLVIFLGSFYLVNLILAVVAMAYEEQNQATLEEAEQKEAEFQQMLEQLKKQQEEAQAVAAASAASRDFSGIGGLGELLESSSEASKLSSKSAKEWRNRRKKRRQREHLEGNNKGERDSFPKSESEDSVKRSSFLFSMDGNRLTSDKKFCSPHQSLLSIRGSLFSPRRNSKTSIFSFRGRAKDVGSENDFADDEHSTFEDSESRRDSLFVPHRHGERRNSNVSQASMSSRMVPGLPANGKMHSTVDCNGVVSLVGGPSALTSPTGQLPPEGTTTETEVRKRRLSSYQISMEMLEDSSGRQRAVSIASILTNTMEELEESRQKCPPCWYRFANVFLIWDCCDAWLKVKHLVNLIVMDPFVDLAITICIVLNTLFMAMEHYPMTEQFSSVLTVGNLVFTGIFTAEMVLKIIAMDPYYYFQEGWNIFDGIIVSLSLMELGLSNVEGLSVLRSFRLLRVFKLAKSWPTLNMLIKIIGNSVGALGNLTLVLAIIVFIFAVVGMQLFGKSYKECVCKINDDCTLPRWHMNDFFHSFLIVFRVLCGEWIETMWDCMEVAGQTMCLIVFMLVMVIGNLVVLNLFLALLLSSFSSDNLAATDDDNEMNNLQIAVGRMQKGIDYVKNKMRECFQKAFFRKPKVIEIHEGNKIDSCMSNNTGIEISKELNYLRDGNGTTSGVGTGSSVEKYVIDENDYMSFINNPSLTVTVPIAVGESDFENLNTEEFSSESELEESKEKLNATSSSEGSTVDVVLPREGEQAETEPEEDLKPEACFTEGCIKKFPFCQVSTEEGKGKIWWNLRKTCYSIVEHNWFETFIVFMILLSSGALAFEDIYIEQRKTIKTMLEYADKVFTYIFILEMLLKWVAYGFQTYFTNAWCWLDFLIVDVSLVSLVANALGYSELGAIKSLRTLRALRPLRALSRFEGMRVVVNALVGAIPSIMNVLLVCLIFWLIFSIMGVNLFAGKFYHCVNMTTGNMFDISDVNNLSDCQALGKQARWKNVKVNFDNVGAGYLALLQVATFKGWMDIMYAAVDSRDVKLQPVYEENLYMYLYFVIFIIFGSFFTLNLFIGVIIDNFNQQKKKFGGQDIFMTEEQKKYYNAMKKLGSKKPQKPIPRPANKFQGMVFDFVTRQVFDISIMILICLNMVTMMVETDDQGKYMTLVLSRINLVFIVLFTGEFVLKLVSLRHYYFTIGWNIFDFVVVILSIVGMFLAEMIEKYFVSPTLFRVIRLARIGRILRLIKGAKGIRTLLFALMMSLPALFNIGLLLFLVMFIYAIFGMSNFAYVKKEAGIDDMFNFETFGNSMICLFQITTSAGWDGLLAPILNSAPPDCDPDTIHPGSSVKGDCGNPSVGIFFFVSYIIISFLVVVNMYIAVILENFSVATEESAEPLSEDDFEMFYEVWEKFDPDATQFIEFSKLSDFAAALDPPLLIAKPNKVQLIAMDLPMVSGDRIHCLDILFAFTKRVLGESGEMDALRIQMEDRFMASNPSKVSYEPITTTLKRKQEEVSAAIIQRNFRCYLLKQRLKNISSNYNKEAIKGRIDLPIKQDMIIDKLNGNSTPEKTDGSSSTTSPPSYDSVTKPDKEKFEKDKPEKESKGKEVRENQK

Compound	inhibition at 3 µM (3 μM compound)	inhibition at 10 µM (10 μM compound)	SCN3A % INHIB HTS IWQ 3 μM (3 μM compound)	SCN3A % INHIB HTS IWQ 10 μM (10 μM compound)	SCN3A INHIB INACT DRC EP IWQ EMAX (Emax of dose-response curve, inactivated state)
C[C@H]([C@@H](O)c1ccccc1)N(C)C(=O)c1ccc(S(=O)(=O)Nc2nccs2)cc1 [Example 241, N-[(1R,2S)-2-hydroxy-1-methyl-2-phenylethyl]-N-methyl-4-[(1,3-thiazol-2-ylamino)sulfonyl]benzamide]	21.7%	11.6%			
COCCCOC1CCCN(C(=O)c2ccc(S(=O)(=O)Nc3nccs3)cc2)C1 (centres unmarked) [Example 260, 4-{[3-(3-Methoxypropoxy)piperidin-1-yl]carbonyl}-N-1,3-thiazol-2-yl-benzenesulfonamide]	-3.05%	10.5%			
Cc1cccc(CNC(=O)c2ccc(S(=O)(=O)Nc3nccs3)cc2)c1 [Example 71, N-(3-methylbenzyl)-4-[(1,3-thiazol-2-ylamino)sulfonyl]benzamide]	38.8%	37.1%			
CC(Cc1ccc(C(F)(F)F)cc1)NC(=O)c1ccc(S(=O)(=O)Nc2nccs2)cc1 (centres unmarked) [Example 130, N-{1-methyl-2-[4-(trifluoromethyl)phenyl]ethyl}-4-[(1,3-thiazol-2-ylamino)sulfonyl]benzamide]	23.1%	16.5%			
O=C(c1ccc(S(=O)(=O)Nc2nccs2)cc1)N1CCOCC(Cc2ccc(F)cn2)C1 (centres unmarked) [Example 216, 4-({6-[(5-Fluoropyridin-2-yl)methyl]-1,4-oxazepan-4-yl}carbonyl)-N-1,3-thiazol-2-yl-benzenesulfonamide]	10.8%	6.67%			
O=C(c1ccccc1)C1CCCN(C(=O)c2ccc(S(=O)(=O)Nc3nccs3)cc2)C1 (centres unmarked) [Example 253, 4-[(3-Benzoylpiperidin-1-yl)carbonyl]-N-1,3-thiazol-2-yl-benzenesulfonamide]	5.99%	31.3%			
O=C(c1ccc(S(=O)(=O)Nc2nccs2)cc1)N1CCCC(Cc2cncnc2)C1 (centres unmarked) [Example 272, 4-{[3-(Pyrimidin-5 ylmethyl)piperidin-1-yl]carbonyl}-N-1,3-thiazol-2-yl-benzenesulfonamide]	1.88%	8.31%			
CC(NC(=O)c1ccc(S(=O)(=O)Nc2nccs2)cc1)c1ccc(F)cc1 (centres unmarked) [Example 103, N-[1-(4-fluorophenyl)ethyl]-4-[(1,3-thiazol-2-ylamino)sulfonyl]benzamide]	21.2%	46.8%			
Cc1ccc(F)cc1CNC(=O)c1ccc(S(=O)(=O)Nc2nccs2)cc1 [Example 58, N-(5-fluoro-2-methylbenzyl)-4-[(1,3-thiazol-2-ylamino)sulfonyl]benzamide]	37.4%	49.7%			
O=C(NCc1c(F)cccc1Cl)c1ccc(S(=O)(=O)Nc2nccs2)cc1 [Example 86, N-(2-chloro-6-fluorobenzyl)-4-[(1,3-thiazol-2-ylamino)sulfonyl]benzamide]	22.3%	26.3%			
O=C(N[C@@H]1CCC[C@@H]1c1ccccc1)c1ccc(S(=O)(=O)Nc2nccs2)cc1 [Example 138, N-[(1R,2R)-2-phenylcyclopentyl]-4-[(1,3-thiazol-2-ylamino)sulfonyl]benzamide]	16.2%	11.2%			
O=C(c1ccc(S(=O)(=O)Nc2nccs2)cc1)N1CCCCC1c1cccc(F)c1 (centres unmarked) [Example 221, 4-{[2-(3-Fluorophenyl)piperidin-1-yl]carbonyl}-N-1,3-thiazol-2-yl-benzenesulfonamide]	19.9%	21.8%			
CC(C)N(Cc1ccccc1)C(=O)c1ccc(S(=O)(=O)Nc2nccs2)cc1 [Example 187, N-benzyl-N-isopropyl-4-[(1,3-thiazol-2-ylamino)sulfonyl]benzamide]	5.69%	4.2%			
O=C(c1ccc(S(=O)(=O)Nc2nccs2)cc1)N(Cc1ccccc1)[C@@H]1CCCC[C@H]1O [Example 213, N-benzyl-N-[(1R,2R)-2-hydroxycyclohexyl]-4-[(1,3-thiazol-2-yl-amino)sulfonyl]benzamide]	-0.67%	1.51%			
Cc1noc(C(NC(=O)c2ccc(S(=O)(=O)Nc3nccs3)cc2)c2ccccc2)n1 (centres unmarked) [Example 183, N-[(3-methyl-1,2,4-oxadiazol-5-yl)(phenyl)methyl]-4-[(1,3-thiazol-2-ylamino)sulfonyl]benzamide]	8.9%	1.34%			
N-[1-(3-methylbenzyl)cyclopropyl] 4-[(1,3-thiazol-2-ylamino)sulfonyl]benzamide [Example 159]			28.7%	35.85%	

Compound	inhibition at 3 µM (3 μM compound)	inhibition at 10 µM (10 μM compound)	SCN3A % INHIB HTS IWQ 3 μM (3 μM compound)	SCN3A % INHIB HTS IWQ 10 μM (10 μM compound)	SCN3A INHIB INACT DRC EP IWQ EMAX (Emax of dose-response curve, inactivated state)
O=C(NCCc1ccc(F)cc1)c1ccc(S(=O)(=O)Nc2nccs2)cc1 [Example 102, N-[2-(4-fluorophenyl)ethyl]-4-[(1,3-thiazol-2-ylamino)sulfonyl]benzamide]	22.4%	37.2%			
C[C@@H]([C@H](O)c1ccccc1)N(C)C(=O)c1ccc(S(=O)(=O)Nc2nccs2)cc1 [Example 188, N-[(1S,2R)-2-hydroxy-1-methyl-2-phenylethyl]-N-methyl-4-[(1,3-thiazol-2-ylamino)sulfonyl]benzamide]	14.5%	1.03%			
O=C(c1ccc(S(=O)(=O)Nc2nccs2)cc1)N1CCCCC1c1ccccn1 (centres unmarked) [Example 238, 4-[(2-Pyridin-2-ylpiperidin-1-yl)carbonyl]-N-1,3-thiazol-2-yl-benzenesulfonamide]	3.68%	9.77%			
O=C(N[C@H](CO)Cc1ccccc1)c1ccc(S(=O)(=O)Nc2nccs2)cc1 [Example 182, N-[(1S)-1-benzyl-2-hydroxyethyl]-4-[(1,3-thiazol-2-ylamino)sulfonyl]benzamide]	4.7%	4.83%			
N#Cc1cccc(OC2CCCN(C(=O)c3ccc(S(=O)(=O)Nc4nccs4)cc3)C2)c1 (centres unmarked) [Example 265, 4-{[3-(3-Cyanophenoxy)piperidin-1-yl]carbonyl}-N-1,3-thiazol-2-yl-benzenesulfonamide]	22.6%	44.3%			32.2
O=C(c1ccc(S(=O)(=O)Nc2nccs2)cc1)N1CCCCCC1c1ccccc1 (centres unmarked) [Example 268, 4-[(2-Phenylazepan-1-yl)carbonyl]-N-1,3-thiazol-2-yl-benzenesulfonamide]	11%	10.6%			
CCN(C(=O)c1ccc(S(=O)(=O)Nc2nccs2)cc1)[C@H](CO)c1ccccc1 [Example 219, N-ethyl-N-[(1S)-2-hydroxy-1-phenylethyl]-4-[(1,3-thiazol-2-yl-amino)sulfonyl]benzamide]	13.1%	1.08%			
Cc1ccc(OCCNC(=O)c2ccc(S(=O)(=O)Nc3nccs3)cc2)cc1 [Example 154, N-[2-(4-methylphenoxy)ethyl]-4-[(1,3-thiazol-2-ylamino)sulfonyl]benzamide]	28%	30.8%			
Cc1ccc(CNC(=O)c2ccc(S(=O)(=O)Nc3nccs3)cc2)cc1 [Example 98, N-(4-methylbenzyl)-4-[(1,3-thiazol-2-ylamino)sulfonyl]benzamide]	28.1%	36.6%			
O=C(c1ccc(S(=O)(=O)Nc2nccs2)cc1)N1CCCC(OCc2ccccc2)C1 (centres unmarked) [Example 211, 4-{[3-(benzyloxy)piperidin-1-yl]carbonyl}-N-1,3-thiazol-2-yl-benzenesulfonamide]	2.5%	10.1%			
CC(c1ccccc1)N(CCO)C(=O)c1ccc(S(=O)(=O)Nc2nccs2)cc1 (centres unmarked) [Example 229, N-(2-hydroxyethyl)-N-(1-phenylethyl)-4-[(1,3-thiazol-2-yl-amino)sulfonyl]benzamide]	12.5%	3.91%			
Cc1cccc(C2CCCN2C(=O)c2ccc(S(=O)(=O)Nc3nccs3)cc2)c1 (centres unmarked) [Example 228, 4-{[2-(3-Methylphenyl)pyrrolidin-1-yl]carbonyl}-N-1,3-thiazol-2-yl-benzenesulfonamide]	19.3%	3.53%			
Cc1nccc(C2CCCN2C(=O)c2ccc(S(=O)(=O)Nc3nccs3)cc2)n1 (centres unmarked) [Example 212, 4-{[2-(2-Methylpyrimidin-4-yl)pyrrolidin-1-yl]carbonyl}-N-1,3-thiazol-2-yl-benzenesulfonamide]	14.7%	-8.45%			
O=C(N[C@H]1CCC[C@@H]1c1ccccc1)c1ccc(S(=O)(=O)Nc2nccs2)cc1 [Example 131, N-[(1S,2R)-2-phenylcyclopentyl]-4-[(1,3-thiazol-2-ylamino)sulfonyl]benzamide]	27.2%	13.1%			
COc1cccc(C2(NC(=O)c3ccc(S(=O)(=O)Nc4nccs4)cc3)CC2)c1 [Example 164, N-[1-(3-methoxyphenyl)cyclopropyl]-4-[(1,3-thiazol-2-ylamino)sulfonyl]benzamide]	16.6%	24.1%			
O=C(N[C@@H]1CCC[C@@H]1c1cc(F)cc(F)c1)c1ccc(S(=O)(=O)Nc2nccs2)cc1 [Example 128, N-[(1R,2R)-2-(3,5-difluorophenyl)cyclopentyl]-4-[(1,3-thiazol-2-ylamino)sulfonyl]benzamide]	11.7%	-1.66%			
